# Reference: US9617250B2, “Pyridin-4-yl derivatives” (ACTELION PHARMACEUTICALS LTD., priority 2013, dated 2017)
# Assays:
# circulating lymphocytes = assay: Assessment of in vivo efficacy: circulating lymphocytes after oral administration; parameters: species or system rat; settings: 6 h after oral administration of 10 mg/kg, normotensive male Wistar rats, compared to vehicle group
# Experimental: The efficacy of the compounds of Formula (I) is assessed by measuring the circulating lymphocytes after oral administration of 3 to 30 mg/kg of a compound of Formula (I) to normotensive male Wistar rats. The animals are housed in climate-controlled conditions with a 12 h-light/dark cycle, and have free access to normal rat chow and drinking water. Blood is collected before and 3, 6 and 24 h after drug administration. Full blood is subjected to hematology using Advia Hematology system (Bayer Diagnostics, Zürich, Switzerland).
# All data are presented as mean±SEM. Statistical analyses are performed by analysis of variance (ANOVA) using Statistica (StatSoft) and the Student-Newman-Keuls procedure for multiple comparisons. The null hypothesis is rejected when p<0.05.
# Lymphocyte counts 6 h after oral administration have been measured for 2 out of 8 exemplified compounds and are in the range of −71% to −73% with an average of −72%.
# human S1P3 receptor = human S1P3 receptor (Homo sapiens (Human), UniProt Q99500); assay: GTPγS assay to determine EC50 values, S1P3; assay type: biochemical; settings: comparison in words
# human S1P3 receptor, sequence (Q99500 whole entry): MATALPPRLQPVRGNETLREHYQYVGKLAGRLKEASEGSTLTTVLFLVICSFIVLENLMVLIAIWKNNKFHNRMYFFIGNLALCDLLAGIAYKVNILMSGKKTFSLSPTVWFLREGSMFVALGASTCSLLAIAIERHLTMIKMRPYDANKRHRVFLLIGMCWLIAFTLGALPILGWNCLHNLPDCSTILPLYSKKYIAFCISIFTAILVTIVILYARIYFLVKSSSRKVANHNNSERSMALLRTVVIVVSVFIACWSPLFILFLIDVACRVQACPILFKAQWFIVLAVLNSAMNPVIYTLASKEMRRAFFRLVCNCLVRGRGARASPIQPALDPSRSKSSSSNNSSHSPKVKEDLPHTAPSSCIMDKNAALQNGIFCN
potency on S1P3 receptor compared to closest analog in D1 (human S1P3 receptor),Structure (SMILES),Lymphocyte counts (circulating lymphocytes) [%]
significantly less potent,"CCc1cc(-c2noc(-c3ccnc(C4CCCC4)c3)n2)cc(C)c1OC[C@@H](O)CNC(=O)CO [Example 8, (S)—N-(3-(2-ethyl-4-(5-(2-cyclopentylpyridin-4-yl)-1,2,4-oxadiazol-3-yl)-6-methylphenoxy)-2-hydroxypropyl)-2-hydroxyacetamide]",−73
significantly less potent,"CCc1cc(-c2noc(-c3ccnc(C(CC)CC)c3)n2)cc(C)c1OC[C@@H](O)CNC(=O)CO [Example 7, (S)—N-(3-(2-ethyl-4-(5-(2-(pentan-3-yl)-pyridin-4-yl)-1,2,4-oxadiazol-3-yl)-6-methylphenoxy)-2-hydroxypropyl)-2-hydroxyacetamide]",−71
clearly less potent,"CCCc1cc(-c2nc(-c3cc(C)c(OC[C@@H](O)CNC(=O)CO)c(CC)c3)no2)ccn1 [Example 2, (S)—N-(3-(2-ethyl-4-(5-(2-propylpyridin-4-yl)-1,2,4-oxadiazol-3-yl)-6-methyl-phenoxy)-2-hydroxypropyl)-2-hydroxyacetamide]",
significantly less potent,"CCc1cc(-c2noc(-c3ccnc(CC(C)C)c3)n2)cc(C)c1OC[C@@H](O)CNC(=O)CO [Example 5, (S)—N-(3-(2-Ethyl-4-(5-(2-isobutylpyridin-4-yl)-1,2,4-oxadiazol-3-yl)-6-methylphenoxy)-2-hydroxypropyl)-2-hydroxyacetamide]",
